Results taken from patent US10563263B2, “Genetic polymorphisms associated with statin response and cardiovascular diseases, methods of detection and uses thereof” (CELERA CORPORATION, priority 2010, dated 2020).

System: CVD (CHD or stroke)
Experiment: WOSCOPS: SNP by pravastatin treatment interaction, logistic regression (synergy index), CVD endpoint
Format: in vivo, human
Settings: for OR (SNP x pravastatin treatment interaction): Imputed, WOSCOPS pravastatin vs placebo; for OR: WOSCOPS
Source text: CARE was a secondary prevention trial and WOSCOPS was a primary prevention trial.
The CHD endpoint was defined in the analyses herein of CARE as a composite endpoint of fatal CHD, definite non-fatal MI, or revascularization, and was defined in the analyses herein of WOSCOPS as a composite endpoint of death from CHD, nonfatal MI, or revascularization. In both the CARE and WOSCOPS analyses herein, the CVD endpoint was defined as a composite endpoint of CHD or stroke. […] Revascularization, which can include percutaneous transluminal coronary angioplasty (PTCA), stent placement, and coronary artery bypass graft (CABG), are medical interventions that indicate the presence of CHD.
Cohort and case-only study designs were used to identify SNPs associated with response to statin treatment.
For each SNP, a logistic regression model having treatment status as the dependent variable and SNP as the independent predictor variable was performed, with terms for age, sex and race included in the model as covariates. The anti-log of the regression coefficient corresponding to the SNP is an estimate of the synergy index (SI) (Davis et al., “Imputing gene-treatment interactions when the genotype distribution is unknown using case-only and putative placebo analyses-a new method for the Genetics of Hypertension Associated Treatment (GenHAT) study”, Statistics in Medicine 23: (2004), pages 2413-2427). The SI is a ratio of odds ratios: for example in the CARE and WOSCOPS studies, the SI represents the factor by which the odds-ratio of statin treatment, compared with placebo, among major homozygous individuals is multiplied by in order to obtain the odds-ratio of treatment vs. placebo among heterozygous individuals; and multiplied by a second time to obtain the odds-ratio of treatment vs. placebo in minor homozygous individuals. […] In a randomized clinical trial, genotype and treatment are independent by design.

CC[C@H](C)C(=O)O[C@H]1C[C@H](O)C=C2C=C[C@H](C)[C@H](CC[C@@H](O)C[C@@H](O)CC(=O)O)[C@H]21 [Pravastatin, pravastatin]
OR (SNP x pravastatin treatment interaction) (SNP rs12820589, allele A1=G, model DOM): 1.936 | OR (SNP x pravastatin treatment interaction) (SNP rs12831292, allele A1=G, model ADD): 0.6841 | OR (SNP x pravastatin treatment interaction) (SNP rs12831292, allele A1=G, model DOM): 0.62 | OR (SNP x pravastatin treatment interaction) (SNP rs13012636, allele A1=G, model REC): 1.901 | OR (SNP x pravastatin treatment interaction) (SNP rs13038146, allele A1=C, model ADD): 1.407 | OR (SNP x pravastatin treatment interaction) (SNP rs13038146, allele A1=C, model REC): 1.414 | OR (SNP x pravastatin treatment interaction) (SNP rs13089860, allele A1=A, model DOM): 0.6221 | OR (SNP x pravastatin treatment interaction) (SNP rs13102419, allele A1=T, model REC): 1.668 | OR (synergy index), WOSCOPS, Prava vs Placebo (SNP rs13121569 (A1 G, A2 A), dom model, CVD endpoint, Caseonly): 0.78 | OR (SNP x pravastatin treatment interaction) (SNP rs13194907, allele A1=A, model ADD): 1.964 | OR (SNP x pravastatin treatment interaction) (SNP rs13194907, allele A1=A, model DOM): 2.136 | OR (SNP x pravastatin treatment interaction) (SNP rs13195745, allele A1=A, model ADD): 1.964 | OR (SNP x pravastatin treatment interaction) (SNP rs13195745, allele A1=A, model DOM): 2.136 | OR (SNP x pravastatin treatment interaction) (SNP rs13265054, allele A1=T, model DOM): 0.6754 | OR (SNP x pravastatin treatment interaction) (SNP rs13282131, allele A1=C, model ADD): 1.415 | OR (SNP x pravastatin treatment interaction) (SNP rs13282131, allele A1=C, model REC): 1.595 | OR (SNP x pravastatin treatment interaction) (SNP rs13387284, allele A1=A, model DOM): 0.5278 | OR (SNP x pravastatin treatment interaction) (SNP rs13401462, allele A1=C, model DOM): 2.137 | OR (SNP x pravastatin treatment interaction) (SNP rs13409045, allele A1=T, model ADD): 0.6931 | OR (marker rs208025, source caseonly, pravastatin vs placebo): 1.52 | OR (marker rs478859, source caseonly, pravastatin vs placebo): 1.33 | OR (marker rs623400, source caseonly, pravastatin vs placebo): 0.62 | OR (marker rs675163, source caseonly, pravastatin vs placebo): 0.71 | OR (marker rs1536506, source caseonly, pravastatin vs placebo): 1.43 | OR (marker rs1866386, source caseonly, pravastatin vs placebo): 0.81 | OR (marker rs2869680, source caseonly, pravastatin vs placebo): 0.70 | OR (marker rs2880563, source caseonly, pravastatin vs placebo): 1.51 | OR (marker rs4251580, source caseonly, pravastatin vs placebo): 0.55 | OR (marker rs4689078, source caseonly, pravastatin vs placebo): 1.45 | OR (marker rs5764592, source caseonly, pravastatin vs placebo): 1.87 | OR (marker rs6040760, source caseonly, pravastatin vs placebo): 1.23 | OR (marker rs7623808, source caseonly, pravastatin vs placebo): 4.22 | OR (marker rs7915250, source caseonly, pravastatin vs placebo): 0.81 | OR (marker rs10106852, source caseonly, pravastatin vs placebo): 1.56 | OR (marker rs10460737, source caseonly, pravastatin vs placebo): 0.10 | OR (marker rs10817479, source caseonly, pravastatin vs placebo): 1.37 | OR (marker rs12286877, source caseonly, pravastatin vs placebo): 2.30 | OR (marker rs12608167, source caseonly, pravastatin vs placebo): 0.66 | OR (marker rs17310169, source caseonly, pravastatin vs placebo): 0.81 | OR (marker rs77638540, source caseonly, pravastatin vs placebo): 0.68 | OR (rs198461 allele C DOM Imputed): 0.4755 | OR (rs208757 allele G ADD Imputed): 1.353 | OR (rs208757 allele G DOM Imputed): 1.453 | OR (rs331555, add, Caseonly, CVD, pravastatin vs placebo): 0.77 | OR (rs1076733, dom, Caseonly, CVD, pravastatin vs placebo): 0.62 | OR (rs1182878, add, Caseonly, CVD, pravastatin vs placebo): 0.75 | OR (rs1474396, dom, Caseonly, CVD, pravastatin vs placebo): 1.73 | OR (rs1782328 allele A ADD Imputed): 0.5789 | OR (rs1796337 allele T DOM Imputed): 0.5422 | OR (rs1798083 allele C DOM Imputed): 0.4733 | OR (rs1798085 allele T DOM Imputed): 0.4727 | OR (rs1798086 allele T DOM Imputed): 0.4689 | OR (rs1798089 allele C REC Imputed): 1.806 | OR (rs1798090 allele C REC Imputed): 1.806 | OR (rs1832222 allele G DOM Imputed): 1.351 | OR (rs1838104 allele A ADD Imputed): 0.6393 | OR (rs1868616 allele G ADD Imputed): 0.7123 | OR (rs1874313 allele A DOM Imputed): 0.6182
